Measured values taken from patent publication US7494987B2, “Agent for treating respiratory diseases containing 4-hydroxypiperidine derivative as active ingredient” (priority 2002, dated 2009).

tested on: not given; experiment: not given; conditions: not given

Which melting point does the source give for `CN(CC1(O)CCN(CCOc2ccc(C#N)cc2)CC1)c1ccc(C(=O)O)cc1.Cl` here?
The melting point was 258.4 to 260.1 °C.

Which melting point does the source give for `COC(=O)c1ccc(S(=O)(=O)CC2(O)CCN(CCc3ccc(C#N)cc3)CC2)cc1` [Example 46, methyl 4-{1-[2-(4-cyanophenyl)ethyl]-4-hydroxypiperidin-4-ylmethylsulfonyl}benzoate] here?
The melting point was 135.4 to 137.2 °C.

For `COC(=O)c1ccc(N(C)CC2(O)CCN(Cc3ccc(C#N)cc3)CC2)cc1` [Example 20, methyl 4-{[1-(4-cyanobenzyl)-4-hydroxypiperidin-4-ylmethyl]methylamino}benzoate], which melting point is on record?
The melting point was 127.5 to 137.1 °C.

With `CN(CC1(O)CCCN(CCc2ccc(C#N)cc2)C1)c1ccc(C(=O)OC(C)(C)C)cc1` (stereo not drawn) [Example 9, tert-butyl 4-({1-[2-(4-cyanophenyl)ethyl]-3-hydroxypiperidin-3-ylmethyl}methylamino)benzoate] as the molecule, how does the melting point read?
The melting point was 41.2 to 44.1 °C.

With `CN(CC1(O)CCN(CCc2ccc(C#N)cc2)C1)c1ccc(C(=O)O)cc1` (stereo not drawn) [Example 14, 4-({1-[2-(4-cyanophenyl)ethyl]-3-hydroxypyrrolidin-3-ylmethyl}methylamino)benzoic acid] as the molecule, how does the melting point read?
The melting point was 106.1 to 130.8 °C.

With `COC(=O)c1ccc(N(C)CC2(O)CCN(CCCc3ccc(C#N)cc3)CC2)cc1` [Example 21, methyl 4-({1-[3-(4-cyanophenyl)propyl]-4-hydroxypiperidin-4-ylmethyl}methylamino)benzoate] as the molecule, how does the melting point read?
The melting point was 126.8 to 129.7 °C.

For `CN(CC1(O)CCN(CCc2ccc(C#N)cc2)CC1)c1ccc(C(=O)NOC2CCCCO2)cc1` (stereo not drawn) [Example 23, 4-({1-[2-(4-cyanophenyl)ethyl]-4-hydroxypiperidin-4-ylmethyl}methylamino)-N-(tetrahydropyran-2-yloxy)benzamide], which melting point is on record?
The melting point was 100.9 to 102.1 °C.

With `CN(CC1(O)CCN(CCc2ccc(C#N)cc2)CC1)c1ccc(C(=O)O)cc1Cl.Cl` as the molecule, how does the melting point read?
The melting point was 254.2 to 258.9 °C.

Which melting point does the source give for `COC(=O)c1ccc(OCC2(O)CCN(CCc3ccc(C#N)cc3)CC2)cc1` [Example 13, methyl 4-{1-[2-(4-cyanophenyl)ethyl]-4-hydroxypiperidin-4-ylmethoxy}benzoate] here?
Its melting point is 118.6 to 120.6 °C.

For `CN(CC1(O)CCCN(CCc2ccc(C#N)cc2)C1)c1ccc(C(=O)O)cc1.Cl` (stereo not drawn), which melting point is on record?
The melting point was 220.1 to 233.3 °C.

For `Cc1cc(C(=O)O)ccc1N(C)CC1(O)CCN(CCc2ccc(C#N)cc2)CC1.Cl`, which melting point is on record?
Its melting point is 127.1 to 132.7 °C.

For `COC(=O)c1ccc(N(C)CC2(O)CN(CCc3ccc(C#N)cc3)C2)cc1` [Example 10, methyl 4-({1-[2-(4-cyanophenyl)ethyl]-3-hydroxyazetidin-3-ylmethyl}methylamino)benzoate], which melting point is on record?
Its melting point is 145.5 to 149.1 °C.

For `COC(=O)c1ccc(N(C)CC2(O)CCN(CCc3ccc(C(F)(F)F)cc3)CC2)cc1` [Example 24, methyl 4-({4-hydroxy-1-[2-(4-trifluoromethylphenyl)ethyl]piperidin-4-ylmethyl}methylamino)benzoate], which melting point is on record?
Its melting point is 142.7 to 143.9 °C.

Which melting point does the source give for `CN(CC1(O)CCN(CCc2ccc(C#N)cc2)CC1)c1ccc(C(=O)O)cc1Cl` [Example 6, 3-chloro-4-({1-[2-(4-cyanophenyl)ethyl]-4-hydroxypiperidin-4-ylmethyl}methylamino)benzoic acid] here?
Its melting point is 110.7 to 112.4 °C.

Which melting point does the source give for `COc1cc(N(C)CC2(O)CCN(CCc3ccc(C#N)cc3)CC2)c(Cl)cc1C(=O)O.Cl` here?
The melting point was 116.3 to 120.8 °C.

Which melting point does the source give for `CN(CC1(O)CCN(CCc2ccc(C#N)cc2)CC1)c1ccc(C(=O)O)c(Cl)c1` [Example 5, 2-chloro-4-({1-[2-(4-cyanophenyl)ethyl]-4-hydroxypiperidin-4-ylmethyl}methylamino)benzoic acid] here?
Its melting point is 186.2 to 189.6 °C.

For `CN(CC1(O)CCN(CCCc2ccc(C#N)cc2)CC1)c1ccc(C(=O)O)cc1.Cl`, which melting point is on record?
The melting point was 150.1 to 151.2 °C.

For `CN(CC1(O)CCN(CCc2ccc(C#N)cc2)CC1)c1ccc(C(=O)O)c(Cl)c1.Cl`, which melting point is on record?
The melting point was 145.2 to 148 °C.

For `CN(CC1(O)CCCN(CCc2ccc(C#N)cc2)C1)c1ccc(C(=O)O)cc1` (stereo not drawn) [Example 15, 4-({1-[2-(4-cyanophenyl)ethyl]-3-hydroxypiperidin-3-ylmethyl}methylamino)benzoic acid], which melting point is on record?
Its melting point is 166.9 to 181.3 °C.

For `Cl.N#Cc1ccc(CCN2CCC(O)(C[S+]([O-])c3ccc(C(=O)O)cc3)CC2)cc1` (stereo not drawn), which melting point is on record?
Its melting point is 279.7 °C (dec.).

For `COc1cc(N(C)CC2(O)CCN(CCc3ccc(C#N)cc3)CC2)c(Cl)cc1C(=O)O` [Example 7, 5-chloro-4-({1-[2-(4-cyanophenyl)ethyl]-4-hydroxypiperidin-4-ylmethyl}methylamino)-2-methoxybenzoic acid], which melting point is on record?
Its melting point is 226.8 to 228.3 °C.

For `COC(=O)c1ccc(N(C)CC2(OC)CCN(CCc3ccc(C#N)cc3)CC2)cc1` [Example 25, methyl 4-({1-[2-(4-cyanophenyl)ethyl]-4-methoxypiperidin-4-ylmethyl}methylamino)benzoate], which melting point is on record?
Its melting point is 126.9 to 134.5 °C.

For `COC1(CN(C)c2ccc(C(=O)O)cc2)CCN(CCc2ccc(C#N)cc2)CC1.Cl`, which melting point is on record?
Its melting point is 226.3 to 230.7 °C.

For `CN(CC1(O)CN(CCc2ccc(C#N)cc2)C1)c1ccc(C(=O)O)cc1` [Example 17, 4-({1-[2-(4-cyanophenyl)ethyl]-3-hydroxyazetidin-3-ylmethyl}methylamino)benzoic acid], which melting point is on record?
Its melting point is 197.9 to 199.4 °C.

For `CN(CC1(O)CCN(CCc2ccc(C#N)cc2)C1)c1ccc(C(=O)O)cc1.Cl` (stereo not drawn) [Example 29, 4-({1-[2-(4-Cyanophenyl)ethyl]-3-hydroxypyrrolidin-3-ylmethyl}methylamino)benzoic acid monohydrochloride], which melting point is on record?
Its melting point is 122.8 to 132.5 °C.

With `COC(=O)c1ccc([S+]([O-])CC2(O)CCN(CCc3ccc(C#N)cc3)CC2)cc1` (stereo not drawn) [Example 44, methyl 4-{1-[2-(4-cyanophenyl)ethyl]-4-hydroxypiperidin-4-ylmethylsulfinyl}benzoate] as the molecule, how does the melting point read?
Its melting point is 169.6 to 174.5 °C.

With `CN(CCC1(O)CCN(CCc2ccc(C#N)cc2)CC1)c1ccc(C(=O)O)cc1.Cl` as the molecule, how does the melting point read?
Its melting point is 231.3 to 236.4 °C.

With `CN(CC1(O)CCN(CCc2ccc(C#N)cc2)CC1)c1ccc(C(=O)NO)cc1.Cl` as the molecule, how does the melting point read?
Its melting point is 191.3 to 193.9 °C.

Which melting point does the source give for `COC(=O)c1ccc(N(C)CC2(O)CCN(CCc3ccc(C#N)cc3)CC2)cc1` [Example 12, methyl 4-({1-[2-(4-cyanophenyl)ethyl]-4-hydroxypiperidin-4-ylmethyl}methylamino)benzoate] here?
The melting point was 140.5 to 142.2 °C.

For `Cc1cc(C(=O)O)ccc1N(C)CC1(O)CCN(CCc2ccc(C#N)cc2)CC1` [Example 3, 4-({1-[2-(4-cyanophenyl)ethyl]-4-hydroxypiperidin-4-ylmethyl}methylamino)-3-methylbenzoic acid], which melting point is on record?
The melting point was 103.6 to 108.7 °C.

With `CN(CC1(O)CN(CCc2ccc(C#N)cc2)C1)c1ccc(C(=O)O)cc1.Cl` [Example 34, 4-({1-[2-(4-Cyanophenyl)ethyl]-3-hydroxyazetidin-3-ylmethyl}methylamino)benzoic acid monohydrochloride] as the molecule, how does the melting point read?
Its melting point is 209.1 to 210.5 °C.

For `CN(CC1(O)CCN(Cc2ccc(C#N)cc2)CC1)c1ccc(C(=O)O)cc1.Cl`, which melting point is on record?
The melting point was 153.1 to 157.7 °C.

Which melting point does the source give for `COC(=O)c1ccc(SCC2(O)CCN(CCc3ccc(C#N)cc3)CC2)cc1` [Example 42, methyl 4-{1-[2-(4-cyanophenyl)ethyl]-4-hydroxypiperidin-4-ylmethylthio}benzoate] here?
Its melting point is 119.1 to 120.8 °C.

For `COc1cc(C(=O)O)ccc1N(C)CC1(O)CCN(CCc2ccc(C#N)cc2)CC1` [Example 4, 4-({1-[2-(4-cyanophenyl)ethyl]-4-hydroxypiperidin-4-ylmethyl}methylamino)-3-methoxybenzoic acid], which melting point is on record?
The melting point was 252.6 °C (dec.).

For `COC(=O)c1ccc(N(C)CC2(O)CCN(CCOc3ccc(C#N)cc3)CC2)cc1` [Example 22, methyl 4-({1-[2-(4-cyanophenoxy)ethyl]-4-hydroxypiperidin-4-ylmethyl}methylamino)benzoate], which melting point is on record?
Its melting point is 112.5 to 113 °C.

Which melting point does the source give for `CN(CCC1(O)CCN(CCc2ccc(C#N)cc2)CC1)c1ccc(C(=O)O)cc1` [Example 16, 4-[(2-{1-[2-(4-cyanophenyl)ethyl]-4-hydroxypiperidin-4-yl}ethyl)methylamino]benzoic acid] here?
The melting point was 146.8 to 148.4 °C.

tested on: Citric Acid-Induced Cough Reflex in Guinea Pigs; experiment: Inhibitory action on citric acid-induced cough reflex in guinea pigs (Experimental Example 1-2, nasal inhalation-exposure apparatus); assay type: in vivo; conditions: oral, 30 mg/kg, cough measured 1 hr after treatment
Protocol: Guinea pigs were fasted overnight. They were fixed to an nasal inhalation-exposure apparatus for small animals (M.I.P.S. Co., Ltd.), and then 20 W/V % citric acid solution was sprayed into the plethysmograph for 2 min (about 1 mL/min) using a nebulizer (M.I.P.S. Co., Ltd.). The number of cough response for 15 min after the spray was measured.
(§1) The cough response was measured 3 hrs before and 1 hr after oral treatment. The test compound was not administered to the guinea pigs showing 5 cough responses or less before the treatment. The ratio of cough response between before and after the treatment (Post/Pre×100) was calculated, and the percent inhibition of the test compound on cough reflex induced by citric acid was determined according to the following formula: [(CRRcontrol−CRRtest)/(CRRcontrol)]×100 (%) • CRRcontrol: Ratio (%) of cough response in the control group • CRRtest: Ratio (%) of cough response in the compound-treated group.

Which “Percent inhibition on cough reflex” value does the source give for `CN(CC1(O)CCN(CCc2ccc(C#N)cc2)C1)c1ccc(C(=O)O)cc1.Cl` (stereo not drawn) [Example 29, 4-({1-[2-(4-Cyanophenyl)ethyl]-3-hydroxypyrrolidin-3-ylmethyl}methylamino)benzoic acid monohydrochloride] here?
Its value is 39%.

Which “Percent inhibition on cough reflex” value does the source give for `CN(CC1(O)CN(CCc2ccc(C#N)cc2)C1)c1ccc(C(=O)O)cc1.Cl` [Example 34, 4-({1-[2-(4-Cyanophenyl)ethyl]-3-hydroxyazetidin-3-ylmethyl}methylamino)benzoic acid monohydrochloride] here?
Its value is 39%.

tested on: Citric Acid-Induced Cough Reflex in Guinea Pigs; experiment: Inhibitory effect on citric acid-induced cough reflex in guinea pigs (Experimental Example 1-1, plethysmograph); assay type: in vivo; conditions: oral, 10 mg/kg, cough measured 1 hr after treatment
Protocol: Guinea pigs were fasted overnight. They were fixed to a plethysmograph, and then the change of inner pressure in the plethysmograph (body side) was recorded on an ink-recording paper (Nihon Kohden Corporation; WI-642G) via the differential pressure transducer (Nihon Kohden Corporation; TP-602T) and the respiration amplifier (Nihon Kohden Corporation; AR-601G). Using a nebulizer (OMRON Corporation; NE-U12), 20 W/V % citric acid solution was sprayed into the plethysmograph (head side) for 2 min (about 1 mL/min). The number of cough response for 15 min after the spray was measured.
as §1, with “coughs response” for “cough responses”, “group” for “group.”

With `COc1ccc2c3c1O[C@H]1[C@@H](O)C=C[C@H]4[C@@H](C2)N(C)CC[C@@]341` [Codeine phosphate] as the molecule, how does the “Percent inhibition on cough reflex” value read?
The value was 40%.

same assay, conditions: oral, 20 mg/kg, cough measured 1 hr after treatment

With `Cn1c(=O)c2[nH]cnc2n(C)c1=O` [Theophylline] as the molecule, how does the “Percent inhibition on cough reflex” value read?
Its value is 37%.

same assay, conditions: oral, 30 mg/kg, cough measured 1 hr after treatment

For `COc1ccc2c3c1O[C@H]1[C@@H](O)C=C[C@H]4[C@@H](C2)N(C)CC[C@@]341` [Codeine phosphate], which “Percent inhibition on cough reflex” value is on record?
Its value is 44%.

same assay, conditions: oral, 60 mg/kg, cough measured 1 hr after treatment

Which “Percent inhibition on cough reflex” value does the source give for `COc1ccc2c3c1O[C@H]1[C@@H](O)C=C[C@H]4[C@@H](C2)N(C)CC[C@@]341` [Codeine phosphate] here?
The value was 66%.
